Read-outs that look alike come from different tables or passages of the source. Each block holds one compound with its values, some of them ahead of it.
Legend:
hiPS-BCECs = experiment: Cytotoxicity, CellTiter-Glo 2.0 Cell Viability Assay; settings: 1% SDS (positive control), 4 h incubation, luminescence; mean ± SEM
Method: Cytotoxicity of phoenixin-14 against hiPS-BCECs was evaluated for three concentrations (1, 10, and 100 nMol) after 4 h incubation with untreated (negative control) and 1% Sodium Dodecyl Sulfate (SDS, Carl Roth, Karlsruhe, Germany)-treated (positive control) hiPS-BCECs as controls. After treatment, a CellTiter-Glo® 2.0 Cell Viability Assay (Promega, Mannheim, Germany) was performed according to the manufacturer’s instructions. Luminescence was measured with an Infinite M200 fluorescence reader (Tecan Group, Männedorf, Switzerland).
Cytotoxicity studies were performed in triplicate and three independent biological replicates. Transport studies were performed in duplicate and repeated three times. […] When feasible based on the number of values, data were tested for normality using the Kolmogorov–Smirnov test; otherwise, they were assumed to be non-normally distributed. Results from the toxicity studies were analyzed using Kruskal–Wallis test and significance values were adjusted according to Bonferroni correction regarding multiple testing. To compare the results of the transport studies, an unpaired t-test was applied. Data are presented as mean ± SEM. The level of significance was defined as p < 0.05 (*).

[1] = system: hiPSC-BCECs (brain capillary-like endothelial cells derived from human induced-pluripotent stem cells); set-up: method as in PMID 28344002; settings: control substances, previously published experiments in the hiPSC-based BBB model; mean ± SEM; cited from earlier work
[2] = set-up: method as in PMID 34575559; settings: in vivo in mice; cited from earlier work
[3] = system: hiPSC-BCECs (brain capillary-like endothelial cells derived from human induced-pluripotent stem cells); experiment: Transport assay across hiPSC-derived BBB mono-culture model (hiPS-BCEC); type: in vitro ADME; settings: for clearance value: mean ± SEM; for permeability coefficient (PC): apical to basolateral, 4 h, 37 °C, ELISA
Method: Human induced-pluripotent stem cells (hiPSC; IMR90-4, WiCell Research Institute, Madison, WI, USA) were cultured in mTeSRTM1 medium (StemCell Technologies, Vancouver, BC, Canada). The hiPSC-derived brain capillary-like endothelial cell (hiPS-BCEC) BBB model was built as previously described. In brief, using Accutase® solution (Sigma-Aldrich, Saint Louis, MO, USA), hiPSCs were dissociated into single cells and seeded in mTeSRTM1 medium (StemCell Technologies Inc.) including […]-27632 dihydrochloride (Tocris, Bristol, UK) on Matrigel® Growth Factor Reduced (GFR) Basement Membrane Matrix, Phenol Red-free (Corning, Corning, NY, USA) coated 6-well plates at a density of 7.5 × 103 hiPSC/cm^2. […] For the next two days, cells were treated with EC++ medium, consisting of human endothelial-[…], Thermo Fisher Scientific) supplemented with 200 × diluted serum-free B-27TM supplement (Thermo Fisher Scientific), 20 ng/mL hbFGF (PeproTech, Cranbury, NJ, USA), and 10 μM all-trans RA (Sigma-Aldrich). No medium change occurred on day 7. Using Accutase®, cells were seeded in EC++ medium at a density of 1 × 106 hiPSC/cm^2 onto 24-well ThinCert® cell culture inserts, with a pore size of 0.4 μm (Greiner BioOne, Frickenhausen, Germany), coated with 400 μg/mL collagen IV (Sigma-Aldrich) and supplemented with 100 μg/mL fibronectin (Thermo Fisher Scientific). Cells were cultured in EC++ medium for 24 h, followed by treatment with EC medium ([…] hbFGF and RA) for another 24 h, yielding purified hiPS-BCECs. Transport assays were performed in cell culture inserts (24-well format) on an orbital shaker (Edmund Buhler GmbH, Bodelshausen, Germany) at 100 rpm, 37 °C, 95% humidity, and 5% CO2. […] Stock solutions of commercially purchased phoenixin-14 (079-01, Phoenix Pharmaceuticals, Inc., Karlsruhe, Germany,) were diluted with EC medium to the desired concentrations (1 nMol or 10 nMol). In total, 200 μL of the final concentrations of phoenixin-14 were applied to the apical side of the BBB model. The basolateral side was supplied with 800 μL of EC medium. The transport was evaluated with a total incubation time of 4 h. Half-hourly, the basolateral medium was collected and replaced with fresh EC medium. As a control, the substances were incubated on empty collagen IV-/fibronectin-coated inserts to exclude major phoenixin-14 adsorption on the membrane. […] The concentration of phoenixin-14 in the apical and basolateral compartment was measured using a commercially purchased ELISA Kit (EK-079-01, Phoenix Pharmaceuticals). The intra-assay variability was 9.7%. The sensitivity for phoenixin was 0.07 ng/mL, while the linear detection ranged from 0.36 to 3.26 ng/mL (Phoenix Pharmaceuticals). […] Data are presented as mean ± SEM.

Compound: CCCCCCCCCCCCOS(=O)(=O)[O-].[Na+] [SDS, Sodium Dodecyl Sulfate]
cell viability in comparison to untreated hiPS-BCECs (hiPS-BCECs): 0.37 ± 0.02%

Compound: Cn1c(=O)c2c(ncn2C)n(C)c1=O [caffeine]
permeability coefficient (PC) [1]: 51.06 ± 9.90 µm/min
clearance value [2]: 1.111e-05 mL/min

passage across the hiPSC-derived BBB model ([3]; 1 and 10 nMol, phoenixin-14 alone, in vitro): did not cross
clearance value ([3]; 1 nMol phoenixin-14, hiPS-BCEC mono-culture, resulting from PC): 6.83e-07 ± 1.39e-07 mL/min
permeability coefficient (PC) ([3]; 10 nMol phoenixin-14, hiPS-BCEC mono-culture, experiment 1 of 3): 0.059 µm/min
permeability coefficient (PC) ([3]; 10 nMol phoenixin-14, hiPS-BCEC mono-culture, experiment 2 of 3): 0.056 µm/min
permeability coefficient (PC) ([3]; 10 nMol phoenixin-14, hiPS-BCEC mono-culture, experiment 3 of 3): 0.019 µm/min
clearance value ([3]; 10 nMol phoenixin-14, hiPS-BCEC mono-culture, based on PC): 1.779e-06 ± 8.17e-07 mL/min
Compound: H-DVQPPGLKVWSDPF-NH2 [phoenixin-14]

Reference: PMC10377091 (Brain Sciences, 2023)
